Measured values from PMC5362899, “Structural insights into the nucleotide base specificity of P2X receptors” (Scientific Reports, 2017).
Numbering of substitutions follows the chain as printed.

Legend:
[1] = molecular target: T1, zfP2X4 (ΔP2X4-C) T189S mutant (Danio rerio, UniProt F8W463, N187R/N78K/T189S); assay: ATR-FTIR difference spectroscopy, residual nucleotide after washing, zfP2X4 T189S; format: binding, zebrafish; conditions: 10 μM nucleotide, after 15–30 min washing, P-O stretching bands 1250–800 cm−1
T1 construct: EGFP (N); octa-histidine tag (N); made in house; host or cells: Sf9 insect cells
T1 sequence (F8W463 28-365 N78K/N187R/T189S limits assumed): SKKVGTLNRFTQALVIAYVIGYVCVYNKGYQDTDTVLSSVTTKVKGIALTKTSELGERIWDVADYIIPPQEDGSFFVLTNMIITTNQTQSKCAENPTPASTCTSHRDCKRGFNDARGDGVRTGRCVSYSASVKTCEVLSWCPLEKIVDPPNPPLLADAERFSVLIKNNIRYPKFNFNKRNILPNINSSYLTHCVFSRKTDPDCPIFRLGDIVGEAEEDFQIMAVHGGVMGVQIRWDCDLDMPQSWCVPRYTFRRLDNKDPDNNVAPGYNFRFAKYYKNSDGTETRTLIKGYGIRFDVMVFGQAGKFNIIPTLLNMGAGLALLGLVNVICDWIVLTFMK
Text: (§1) To further investigate the nucleotide binding specificity of zfP2X4, we applied ligand-binding induced difference Attenuated total reflectance (ATR)-Fourier-transform infrared (FTIR) spectroscopy on the WT and conserved threonine mutants (T189S and T189V) of zfP2X4.
(§2) Figure 5 ATR-FTIR spectroscopic analysis of zfP2X4 for the ATP and CTP bindings. (A) The reduction of the ligand binding induced difference spectra in the ΔP2X4-C ^zfWT, ^zfT189S and ^zfT189V mutants around the P-O stretching region (1250–800 cm^−1) after washing treatment for 15–30 min. (B) The residual nucleotides after the washing treatment estimated from the ATR-FTIR analysis in (A).
(§3) The nucleotide binding affinity of zfP2X4 was analyzed by reduction of the band intensity after washing treatment (Fig. 5). The reduction of the P-O stretching bands between 1250–800 cm^−1 was monitored for ATP (Fig. 5A). […]
(§4) The perfusion-induced difference FTIR spectroscopy was performed as similarly to the previous studies. […] ATR-FTIR spectra of the samples were recorded at 25 °C and 2 cm^−1 resolution using a VERTEX 70 spectrometer (Bruker Optics) equipped with a liquid-nitrogen-cooled MCT detector. […] The obtained difference spectra were normalized based on the absolute absorbance of the amide I band at 1653 cm^−1, which well correlates with the quantities of the proteins on the ATR crystals. […]

[2] = molecular target: T2, zfP2X4 (ΔP2X4-C) T189V mutant (Danio rerio, UniProt F8W463, N187R/N78K/T189V); assay: ATR-FTIR difference spectroscopy, residual nucleotide after washing, zfP2X4 T189V; format: binding, zebrafish; conditions: 10 μM nucleotide, after 15–30 min washing, P-O stretching bands 1250–800 cm−1
T2 construct: EGFP (N); octa-histidine tag (N); made in house; host or cells: Sf9 insect cells
T2 sequence (F8W463 28-365 N78K/N187R/T189V limits assumed): T1 sequence (F8W463 28-365 N78K/N187R/T189S limits assumed) with S162V
Text: as §1, §2, §3, §4

## Nc1ncnc2c1ncn2[C@@H]1O[C@H](COP(=O)(O)OP(=O)(O)OP(=O)(O)O)[C@@H](O)[C@H]1O [ATP, Adenosine 5-triphosphate]
[1]
  residual nucleotide binding after washing: ~ 60%
[2]
  residual nucleotide binding after washing: 10%

## Nc1ccn([C@@H]2O[C@H](COP(=O)(O)OP(=O)(O)OP(=O)(O)O)[C@@H](O)[C@H]2O)c(=O)n1 [CTP]
[1]
  residual nucleotide binding after washing: ~ 30%
[2]
  residual nucleotide binding after washing: ~ 30%
